From ChEMBL document CHEMBL2406991, “A novel series of metabotropic glutamate receptor 5 negative allosteric modulators based on a 4,5,6,7-tetrahydropyrazolo[1,5-a]pyridine core” (Bioorg Med Chem Lett, 2013)

biological target: Metabotropic glutamate receptor 5 (Rattus norvegicus, UniProt P31424); assay: Negative allosteric modulation of rat mGluR5 receptor expressed in HEK293 cells assessed as intracellular calcium flux after 170 seconds by FLIPR assay; format: functional, cell-based; conditions: read-out: IC50
Sequence (P31424 whole entry): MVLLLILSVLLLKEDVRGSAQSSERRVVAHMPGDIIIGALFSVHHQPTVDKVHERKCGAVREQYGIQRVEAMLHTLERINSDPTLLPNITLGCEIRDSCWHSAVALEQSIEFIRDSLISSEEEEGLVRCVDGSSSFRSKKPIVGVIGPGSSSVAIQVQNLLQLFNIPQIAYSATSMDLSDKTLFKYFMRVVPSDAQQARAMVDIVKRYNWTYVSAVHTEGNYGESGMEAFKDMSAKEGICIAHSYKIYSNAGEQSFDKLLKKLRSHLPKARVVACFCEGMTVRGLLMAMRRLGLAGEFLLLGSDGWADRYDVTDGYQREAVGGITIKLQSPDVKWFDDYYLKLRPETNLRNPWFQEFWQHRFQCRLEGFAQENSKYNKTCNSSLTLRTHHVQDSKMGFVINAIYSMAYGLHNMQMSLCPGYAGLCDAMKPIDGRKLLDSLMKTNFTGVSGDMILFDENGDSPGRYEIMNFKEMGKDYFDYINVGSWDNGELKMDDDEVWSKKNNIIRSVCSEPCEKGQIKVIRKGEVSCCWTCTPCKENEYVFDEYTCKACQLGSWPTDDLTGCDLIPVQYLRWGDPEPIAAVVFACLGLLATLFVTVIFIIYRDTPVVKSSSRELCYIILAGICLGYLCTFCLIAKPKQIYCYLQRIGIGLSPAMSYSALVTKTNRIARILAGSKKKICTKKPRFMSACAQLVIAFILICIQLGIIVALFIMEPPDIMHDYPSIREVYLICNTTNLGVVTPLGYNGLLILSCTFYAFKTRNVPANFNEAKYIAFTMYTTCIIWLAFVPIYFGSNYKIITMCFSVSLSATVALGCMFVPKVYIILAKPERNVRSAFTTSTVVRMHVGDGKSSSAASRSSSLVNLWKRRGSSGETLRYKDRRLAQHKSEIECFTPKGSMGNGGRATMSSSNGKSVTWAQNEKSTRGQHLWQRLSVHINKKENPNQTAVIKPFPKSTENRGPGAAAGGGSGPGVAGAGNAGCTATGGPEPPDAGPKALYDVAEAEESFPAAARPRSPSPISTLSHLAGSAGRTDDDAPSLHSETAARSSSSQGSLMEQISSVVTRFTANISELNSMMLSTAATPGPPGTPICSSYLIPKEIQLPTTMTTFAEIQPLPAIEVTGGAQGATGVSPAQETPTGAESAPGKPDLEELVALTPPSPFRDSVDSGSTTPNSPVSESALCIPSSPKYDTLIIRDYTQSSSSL

Row | IC50 | SMILES
1 | > 10000 nM | Nc1cccnc1NC(=O)c1cc2n(n1)CCCC2
2 | 1520 nM | Clc1cccc(-c2cc3n(n2)CCCC3)n1
3 | 4500 nM | COc1cccc(-c2cc3n(n2)CCCC3)c1
4 | 1810 nM | N#Cc1ccc(NC(=O)c2cc3ccccn3n2)nc1
5 | 364 nM | O=C(Nc1ccccn1)c1cc2n(n1)CCCC2
6 | 3080 nM | Cc1ccnc(-c2cc3n(n2)CCCC3)c1
7 | 5900 nM | Clc1cccc(COc2cc3n(n2)CCCC3)n1
8 | 2500 nM | c1ccc(COc2cc3n(n2)CCCC3)nc1
9 | 675 nM | Clc1ccnc(-c2cc3n(n2)CCCC3)c1
10 | 5380 nM | N#Cc1ccc(CC(=O)c2nn3c(c2C#N)CCCC3)nc1
11 | 1890 nM | c1ccc(-c2cc3n(n2)CCCC3)cc1
12 | 4740 nM | O=C(Nc1cccc(F)n1)c1cc2n(n1)CCCC2
13 | 1550 nM | Clc1ccc(COc2cc3n(n2)CCCC3)nc1
14 | 7180 nM | N#Cc1ccc(CC(=O)c2nn3c(c2C(F)(F)F)CCCC3)nc1
15 | 669 nM | Clc1ccc(-c2cc3n(n2)CCCC3)nc1
16 | > 10000 nM | Clc1ccnc(COc2cc3n(n2)CCCC3)c1
17 | 4230 nM | Clc1ccc(-c2cc3n(n2)CCCC3)cc1
18 | > 10000 nM | O=C(Nc1ncccc1O)c1cc2n(n1)CCCC2
19 | 1610 nM | N#Cc1ccc(COc2cc3n(n2)CCCC3)cc1
20 | 1570 nM | Fc1cccc(-c2cc3n(n2)CCCC3)c1
21 | 3000 nM | Cc1ccc(-c2cc3n(n2)CCCC3)nc1
22 | 2650 nM | Clc1ccccc1-c1cc2n(n1)CCCC2
23 | 390 nM | O=C(Cc1ccccn1)c1cc2n(n1)CCCC2
24 | 262 nM | O=C(Nc1ccc(Cl)cn1)c1cc2n(n1)CCCC2
25 | > 10000 nM | N#Cc1ccc(-c2cc3n(n2)CCCC3)nc1

biological target: Metabotropic glutamate receptor 5 (Rattus norvegicus) (UniProt P31424); assay: Partial negative allosteric modulation of rat mGluR5 receptor expressed in HEK293 cells assessed as intracellular calcium flux after 170 seconds by FLIPR assay relative to control; format: functional, cell-based; conditions: not given
Sequence (P31424 21-1203 limits assumed): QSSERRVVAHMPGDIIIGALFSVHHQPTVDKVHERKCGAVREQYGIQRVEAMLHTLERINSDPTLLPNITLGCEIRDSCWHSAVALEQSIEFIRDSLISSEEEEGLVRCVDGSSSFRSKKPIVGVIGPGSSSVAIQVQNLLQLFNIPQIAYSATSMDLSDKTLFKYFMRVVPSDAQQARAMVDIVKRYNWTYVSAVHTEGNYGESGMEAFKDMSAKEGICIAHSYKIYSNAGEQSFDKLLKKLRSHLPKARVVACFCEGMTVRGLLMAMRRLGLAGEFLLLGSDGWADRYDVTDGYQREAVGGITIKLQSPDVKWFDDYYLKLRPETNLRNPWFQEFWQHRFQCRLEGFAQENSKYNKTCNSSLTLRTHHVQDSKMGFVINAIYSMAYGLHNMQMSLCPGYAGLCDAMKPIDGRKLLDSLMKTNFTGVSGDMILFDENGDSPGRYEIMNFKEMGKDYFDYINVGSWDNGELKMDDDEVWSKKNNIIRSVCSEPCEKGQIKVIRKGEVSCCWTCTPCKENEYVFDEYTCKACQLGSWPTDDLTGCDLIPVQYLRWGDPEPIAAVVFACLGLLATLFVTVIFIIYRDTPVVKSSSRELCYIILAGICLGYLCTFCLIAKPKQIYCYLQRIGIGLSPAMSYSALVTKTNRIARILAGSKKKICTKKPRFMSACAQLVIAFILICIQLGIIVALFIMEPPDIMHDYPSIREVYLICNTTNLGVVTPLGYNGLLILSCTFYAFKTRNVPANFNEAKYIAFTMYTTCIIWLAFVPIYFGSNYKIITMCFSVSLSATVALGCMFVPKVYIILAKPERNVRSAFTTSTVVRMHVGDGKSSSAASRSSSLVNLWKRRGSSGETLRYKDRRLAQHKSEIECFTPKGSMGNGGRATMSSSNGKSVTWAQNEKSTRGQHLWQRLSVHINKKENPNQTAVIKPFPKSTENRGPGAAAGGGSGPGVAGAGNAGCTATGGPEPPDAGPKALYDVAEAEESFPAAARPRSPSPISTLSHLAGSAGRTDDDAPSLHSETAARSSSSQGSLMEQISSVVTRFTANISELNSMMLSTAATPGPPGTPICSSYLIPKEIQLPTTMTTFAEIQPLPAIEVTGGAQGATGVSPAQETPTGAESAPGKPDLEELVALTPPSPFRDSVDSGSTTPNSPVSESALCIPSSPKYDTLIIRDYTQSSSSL

Row | IC50 | SMILES
26 | 332 nM | Clc1cccc(COc2cc3n(n2)CCCC3)c1
27 | 451 nM | N#Cc1cccc(COc2cc3n(n2)CCCC3)c1
